# Data taken from US8377972B2, “Use of quaternary pyridinium compounds for vasoprotection and/or hepatoprotection” (Trigendo Sp. zo.o., priority 2007, dated 2013).
# “Also recorded” adds a separate entry of the source. Where two headings read alike, the source gives them in different places.
# What was measured:
# platelet-rich thrombus [1] = settings: Table 2; known anti-thrombotic activity, documented in WO 2005/067927; cited from earlier work
# platelet-rich thrombus [2] = assay: Thrombolytic response in vivo in rats with extracorporeal circulation (thrombus on collagen strip); parameters: species or system Wistar rats; settings: for thrombolytic response, maxima / thrombolytic response (in words): 30 mg/kg intravenous; for thrombolytic response (in words): Wistar rats; for Thrombolytic response: Table 3, trigonelline and its thermal decomposition products
# Protocol: Thrombolytic activity was assayed by the method developed originally by Gryglewski et al., (Gryglewski R J, Korbut R, Ocetkiewicz A, Stachura J. In vivo method for quantitation for anti-platelet potency of drugs. Naunyn Schmiedebergs Arch Pharmacol 1978; 302:25-30; Gryglewski R J 1978, Gryglewski et al., 2001). The scheme of the method is shown on FIG. 1.
# Wistar rats (body weight of 300-350 g) were anaesthetised (thiopental 95 mg/kg i.p) and heparinised (800 U/kg i.v.). Caniules were placed in arteries and connected from the left carotid artery vein with a pressure sensor and from the right carotid artery through heated (37° C.) line to peristaltic pomp. The blood from carotid artery was pumped to the extracorporeal circulation were it superfused (1.5 ml/min) a 3 cm collagen strip excised from Achilles tendon hung on a spring-balanced auxotonic lever of a Harvard 386 isotonic transducer and the weight of the collagen strip was continuously registered. After superfusion the blood was returned to the circulation of an animal. During superfusion a thrombus made of platelets aggregates stuck in the fibrin network (microscopically visualized by the Weigert method) was formed on the surface of the collagen strip. A pressure and the thrombus weight were continuously recorded.
# Then the trigonelline thermolysate, 1-methylpyridine or 1,4-dimethylpyridine were injected intravenously into the femoral vein (30 mg·kg^−1).
# [3] = Binding of pyridinium cations to sepharose-immobilized heparin (spectrophotometric); settings: immobilized heparin 25 mg/mL, tested compounds 20÷100 μM in water, 5 minutes, room temperature
# Excerpt: The presence of the heparin in the pyridinium salt solution changes the absorption spectrum of the salt through the non-specific electrostatic interactions of pyridinium cations with negatively charged heparin moieties. The use of water-insoluble sepharose-immobilized heparin which binds some fraction of pyridinium cations causes the decrease of the concentration of the salt in the solution.
# At the high excess of the immobilized heparin in relation to the pyridinium salt concentration the degree of binding depends only on the heparin concentration. It allows, by using the experimental methodology described below, to estimate the degree of binding of different pyridinium compounds to heparin, provided that analogical concentrations of pyridinium salts and constant concentration of sepharose-immobilized heparin are used.
# To estimate a degree of binding of the pyridinium_compounds with heparin spectrophotometric method based on the absorption measurements of aqueous solutions of tested compounds at 20÷100 μM before and after a contact with heparin was used.
# The suspensions of immobilized heparin with the tested compounds were then placed into Eppendorf microtubes and centrifuged at 13 000 rpm for 4 minutes using FORCE 1418 microcentrifuge from Labnet Int. (Edison, N.J., USA). The UV-Vis absorption spectra of the resulting clear supernatants was measured with Perkin Elmer Lambda 40 spectrophotometer. All measurements were performed at room temperature. The degree of binding was estimated based on comparison of integrated area under the absorption curve for the solutions incubated and non-contacted with heparin.
# [4] = test system: Zucker fatty rats (fa/fa); assay: Antidiabetic effects in the rat model of metabolic syndrome (glucose injection); assay type: in vivo; settings: 7 days treatment (thermolysate 100 mg/kg, metformin 500 mg/kg), glucose 2 g/kg i.p., 0-90 minutes
# Protocol: After 7 days glucose was injected at 2 g/kg (i.p.) and postprandial hyperglycemia was analyzed in the following periods: 0, 15, 30, 60 and 90 minutes after the injection of glucose.
# Balb/c mice = assay: Hepatoprotective effect in mice model of acute liver injury (Concanavalin A-induced hepatitis); assay type: in vivo; settings: 100 mg/kg per os for 7 days, ConA 20 mg/kg i.v., 8 hours later
# Protocol: Balb/c mice at the age of 2 months were treated for 7 days with 1,4-dimethylpyridinium chloride (100 mg/kg, per os) or were left untreated and then mice were injected with Concanavalin A (ConA) inducing T cell-mediated hepatitis. ConA was injected intravenously at a dose of 20 mg/kg and 8 hours later liver injury was assessed on the basis of transaminase (AST) level in plasma.
Degree of binding [3],Structure (SMILES),Thrombolytic response (platelet-rich thrombus [1]),thrombolytic response (in words) (platelet-rich thrombus [2]),also measured
>40%,"O=C(O)c1cccnc1 [NC, nicotinic acid]",no,lack of significant thrombolytic response,"thrombolytic response, maxima (platelet-rich thrombus [2]): 5±0.9%"
>35%,"C[n+]1cccc(C(=O)NCO)c1 [MNAF^+, 1-methyl-N′-(hydroxy-methyl) nicotinamide]",yes,–,–
≈0%,"C[n+]1cccc(C(=O)[O-])c1 [Tryg, trigonelline]",–,lack of significant thrombolytic response; also recorded: did not induce significant thrombolytic response,Thrombolytic response (platelet-rich thrombus [2]): no
>25%,"CC(=O)c1ccc[n+](C)c1 [MAP^+, 1-methyl-3-acetyl-pyridine]",yes,–,–
>10%,"NC(=O)c1ccc[n+]([O-])c1 [N—OX, nicotinamide N-oxide]",–,–,–
>5%,"Cc1cc[n+](C)cc1C(=O)[O-] [4MeTryg, 4-methyltrigonelline]",–,–,–

# Further lines, the molecule ahead of its results:
Structure (SMILES),Degree of binding [3],Thrombolytic response (platelet-rich thrombus [1]),thrombolytic response (in words) (platelet-rich thrombus [2]),also measured
"NC(=O)c1cccnc1 [NA, nicotinamide]",≈0%,no,lack of significant thrombolytic response,"thrombolytic response, maxima (platelet-rich thrombus [2]): 9±0.6%"
"C[n+]1cccc(C(N)=O)c1 [MNA^+, 1-methyl-nicotinamide]",>45%,yes,–,–
"C[n+]1ccccc1 [MP^+, 1-methylpyridine]",>25%,–,moderate thrombolytic response,Thrombolytic response (platelet-rich thrombus [2]): yes
"Cn1cc(C(N)=O)ccc1=O [2-PYR, 1-methyl-2-pyridone-5-carboxamide]",>5%,no,–,–
"Cc1cccc[n+]1C [12-DMP^+, 1,2-dimethylpyridine]",>15%,–,–,–
CN(C)C(=N)N=C(N)N [metformin],–,–,–,postprandial hyperglycemia induced by glucose injection [4]: decreased postprandial hyperglycemia
"Cc1cc[n+](C)cc1 [14-DMP^+, 1,4-dimethylpyridine]",>20%,–,–,transaminase (AST) level in plasma after ConA injection (Balb/c mice): prevented a rise in AST levels; Thrombolytic response (platelet-rich thrombus [2]): yes
